One data set has as its system M. tuberculosis H37Rv. The experiment in a line: microbe, parasite or virus in culture. The format is cell-based. Conditions: for MIC / MIC90: Mycobacterium tuberculosis, H37RV, read-out: M. tuberculosis MIC90.
A further data set concerns M. bovis BCG cultures. The class given is cell-based, Mycobacterium bovis BCG.
The subject of data set [1] is M. tuberculosis H37Rv in infected mouse Bone Marrow-Derived Macrophages. The class given is cell-based, Mycobacterium tuberculosis. Conditions: BMDM; for Reduction of the burden of intracellular bacteria: 32 × MIC.
The next data set concerns Vero cells. Conditions: CC50 (Vero) / MIC90 (replicating M. tuberculosis H37Rv).
A short description of another data set: in vitro. Conditions: African green monkey, VERO cells CC50, 72 h exposure, ATP readout.
A further data set concerns the target Mrx2WT (Mycobacterium tuberculosis, UniProt O53193). The experiment in a line: Mrx2 enzyme kinetic assay. Conditions: 10 μM compound, 30 μM enzyme, absorbance at 412 nm. The class given is biochemical, M. tuberculosis.
Data set [2] has as its system non-replicating M. tuberculosis H37Rv. The class given is cell-based, Mycobacterium tuberculosis. Conditions: MBC90 NR / MIC90 replicating.
The subject of data set [3] is sigH and mrx2 expression in M. tuberculosis H37Rv. The experiment in a line: sigH and mrx2 transcriptional levels by qRT-PCR upon compound exposure. The class given is cell-based, Mycobacterium tuberculosis. Conditions: 1×, 2×, 4×, 8× MIC90; different time points.
A further data set deals with Mrx2 mutants. The format is biochemical, M. tuberculosis. Conditions: enzyme kinetic assay.

Converted amounts (≈) assume the structure as drawn. Like-named read-outs stand apart in the source and are kept apart here. A value given as a limit tells only on which side of the number the result lay.

Sequence of Mrx2WT (O53193 whole entry): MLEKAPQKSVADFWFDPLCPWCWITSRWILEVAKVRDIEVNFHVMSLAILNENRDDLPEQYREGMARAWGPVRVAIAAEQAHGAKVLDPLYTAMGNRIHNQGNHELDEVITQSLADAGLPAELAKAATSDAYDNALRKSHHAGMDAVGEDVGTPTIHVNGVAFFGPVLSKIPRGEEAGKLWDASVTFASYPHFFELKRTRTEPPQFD

As to “1-Butyl-2-nitronaphtho[2,1-b]furan [nNF-C11]”, in the data set with M. tuberculosis H37Rv (REMA, H37Rv, median), the “MIC90 R[…]. tuberculosis μM (median)” value was 32.89 µM and the “MIC90 R[…]. tuberculosis μg/ml (median)” value was 8 µg/mL. Besides, the “MIC90 R[…]. tuberculosis μg/ml (range)” value against M. tuberculosis H37Rv (REMA, H37Rv, range) lay within 8 to 16 µg/mL. For the same compound, the “M. tuberculosis MIC90” value in the data set with M. tuberculosis H37Rv (value used for SI in Table 2) turned out to be 8 µg/mL.
With `O=[N+]([O-])c1cn2c(n1)OC[C@@H](OCc1ccc(OC(F)(F)F)cc1)C2` [PA-824, Pretomanid, reference compound], in the data set on M. bovis BCG cultures, the “NO release in treated M. bovis BCG cultures” value (“NO release” below) is given as “significant NO release in a concentration dependent manner”.
As for `CO[C@H]1/C=C/O[C@@]2(C)Oc3c(C)c(O)c4c(O)c(c(/C=N/N5CCN(C)CC5)c(O)c4c3C2=O)NC(=O)/C(C)=C\C=C\[C@H](C)[C@H](O)[C@@H](C)[C@@H](O)[C@@H](C)[C@H](OC(C)=O)[C@@H]1C` [RIF, Rifampicin, reference compound], in [1] (32 times its MIC), the “Concentration needed to achieve a similar level (ca. 2 logs) of intracellular killing” value stood at 0.32 μg/ml. Also, in the data set on M. tuberculosis H37Rv, the MIC worked out at 0.01 µg/mL (≈ 0.0122 µM). Also, the “Selectivity index (SI)” value in the data set on Vero cells came out at 7824.1. It took 78.2 µg/mL (≈ 95 µM) to reach half-maximal cytotoxicity in “in vitro” (CC50).
`O=[N+]([O-])c1cc2c(ccc3c2ccc2cc([N+](=O)[O-])oc23)o1` [nNF-C1, 2,7-dinitronaphtho[1,2-b:6,5-b']difuran]: the MIC90 in the data set with M. tuberculosis H37Rv was 0.125 µg/mL (≈ 0.419 µM).
As for `O=[N+]([O-])c1cc2cc3ccc4oc([N+](=O)[O-])cc4c3cc2o1` [nNF-C2, 2,8-Dinitronaphtho[2,1-b:7,6-b']difuran], the “Metabolism of the compound by Mrx2WT” value on Mrx2WT is “completely metabolized”. Also, the “NO release” value in the data set with M. bovis BCG cultures is recorded as “significant NO release in a concentration dependent manner”. The “Activity against non-replicating M. tuberculosis in the charcoal assay relative to MIC90 against replicating bacteria” value in [2] is reported as 4–8 times. In addition, the “Induction of sigH and mrx2 expression” value in [3] was “time and concentration-dependant induction of both genes”. In addition, in the data set on Mrx2 mutants, the “Activity of Mrx2T25R, Mrx2S46R, Mrx2Y91S, Mrx2H140D and Mrx2R198G against the compound” value is recorded as “only residual activity”. The “Reduction of the number of intracellular M. tuberculosis bacteria” value in [1] (4 times of MIC90 (0.25 μg/ml)) is recorded as “ca. 2 logs”. The “Reduction of the burden of intracellular bacteria” value in data set [1] is recorded as “more than 4 logs”. The MIC90 with M. tuberculosis H37Rv was determined as 0.0625 µg/mL (≈ 0.21 µM).
As to `O=[N+]([O-])c1cc2c(ccc3c4cc([N+](=O)[O-])oc4ccc23)o1` [nNF-C3, 2,7-Dinitronaphtho[2,1-b:6,5-b']difuran], in the data set with M. tuberculosis H37Rv, the MIC worked out at 1 µg/mL (≈ 3.35 µM).
Regarding `COC(=O)c1ccc2c(ccc3oc([N+](=O)[O-])cc32)c1` [nNF-C4, Methyl 2-nitronaphtho[2,1-b]furan-7-carboxylate], in the data set on M. bovis BCG cultures, the “NO release” value is recorded as “significant NO release in a concentration dependent manner” and the “Nitrite levels relative to nNF-C2” value was roughly 4 times. For the same compound, the “Activity against non-replicating M. tuberculosis in the charcoal assay relative to MIC90 against replicating bacteria” value in [2] is 4–8 times. Also, the “Reduction of the number of intracellular M. tuberculosis bacteria” value in [1] (2 times of MIC90 (0.25 μg/ml)) is listed as “ca. 2 logs”. Moreover, the “Reduction of the burden of intracellular bacteria” value in [1] is listed as “more than 4 logs”. Further, in the data set with M. tuberculosis H37Rv, the MIC90 was 0.125 µg/mL (≈ 0.461 µM).
Regarding `N#Cc1ccc2c(ccc3oc([N+](=O)[O-])cc32)c1` [nNF-C5, 2-Nitronaphtho[2,1-b]furan-7-carbonitrile], in the data set with M. tuberculosis H37Rv, the MIC90 was found to be 0.25 µg/mL (≈ 1.05 µM). The CC50 in “in vitro” is 12.5 µg/mL (≈ 52.5 µM).
As to `O=[N+]([O-])c1cc2c(ccc3cc(Br)ccc32)o1` [nNF-C6, 7-Bromo-2-nitronaphtho[2,1-b]furan], in the data set on M. tuberculosis H37Rv, the MIC90 turned out to be 0.5 µg/mL (≈ 1.71 µM). Also, in the data set on Vero cells, the “Selectivity index (SI)” value worked out at 182.6.
For the compound `COc1ccc2c(ccc3oc([N+](=O)[O-])c(C)c32)c1` [nNF-C7, 7-Methoxy-1-methyl-2-nitronaphtho[2,1-b]furan], the MIC90 in the data set with M. tuberculosis H37Rv was 4 µg/mL (≈ 15.5 µM). In addition, in the data set “in vitro”, the CC50 is 67.5 µg/mL (≈ 262 µM).
The like results for `COc1cc2ccc3oc([N+](=O)[O-])cc3c2cc1OC` [nNF-C8, 7,8-Dimethoxy-2-nitronaphtho[2,1-b]furan] were, in that order, 0.125 µg/mL (≈ 0.457 µM) and 0.4 µg/mL (≈ 1.46 µM).
`CCCCc1c([N+](=O)[O-])oc2ccc3ccccc3c12` [nNF-C12, 1-Butyl-2-nitronaphtho[2,1-b]furan]: the MIC90 with M. tuberculosis H37Rv stood at 4 µg/mL (≈ 14.9 µM). The compound also registered a CC50 in the data set “in vitro” of 73.5 µg/mL (≈ 273 µM).
With `Cc1c([N+](=O)[O-])oc2ccc3ccccc3c12` [nNF-C14, 1-Methyl-2-nitronaphtho[2,1-b]furan], the MIC90 with M. tuberculosis H37Rv amounted to 2 µg/mL (≈ 8.8 µM). The “Selectivity index (SI)” value with Vero cells is recorded as greater than 50.
Turning to `COc1ccc2c(ccc3oc([N+](=O)[O-])cc32)c1` [nNF-C16, 7-Methoxy-2-nitronaphtho[2,1-b]furan], the MIC90 with M. tuberculosis H37Rv came out at 0.0625 µg/mL (≈ 0.257 µM). This compound also had a CC50 in the data set “in vitro” of 0.3 µg/mL (≈ 1.23 µM).
The like results for `CCc1c([N+](=O)[O-])oc2ccc3ccccc3c12` [nNF-C17, 1-Ethyl-2-nitronaphtho[2,1-b]furan] were, in that order, 2 µg/mL (≈ 8.29 µM) and 55.1 µg/mL (≈ 228 µM).
As to `COc1ccc2ccc3oc([N+](=O)[O-])cc3c2c1Br` [nNF-C18, 9-Bromo-8-methoxy-2-nitronaphtho[2,1-b]furan], the MIC90 with M. tuberculosis H37Rv turned out to be 0.25 µg/mL (≈ 0.776 µM). Besides, the midpoint of cytotoxicity in “in vitro”, the CC50, lay at 2.2 µg/mL (≈ 6.83 µM).
For the compound `CCOC(=O)COc1ccc2ccc3oc([N+](=O)[O-])cc3c2c1` [nNF-C20, Ethyl 2-({2-nitronaphtho[2,1-b]furan-8-yl}oxy)acetate], the MIC with M. tuberculosis H37Rv amounted to 0.25 µg/mL (≈ 0.793 µM). In “in vitro”, this compound showed a CC50 of 9.3 µg/mL (≈ 29.5 µM).

For orientation: CC50 means the concentration giving 50% cytotoxicity.

The values are drawn from PMC9841431 (Nucleic Acids Research, 2022).
